Results reported in patent US6342534B1, “Analogs of biologically active, naturally occurring polyamines, pharmaceutical compositions and methods of treatment” (University of Florida Research Foundation, Inc., priority 1986, dated 2002).
Like-named read-outs stand apart in the source and are kept apart here.

Key:
[1] = cited from earlier work
[2] = test system: a variety of tumors in cell culture; assay: Anti-neoplastic activity against tumors in cell culture; type: cell-based
Source text: (§1) If there is any significance to the role of charge interaction in the biological properties of the polyamine analogs, alterations in the polyamine methylene backbone should have significant impact on the compound's biological properties. […] The trifluoroethyl group substantially reduces the pKa of the terminal nitrogens and they are no longer protonated [J. Org. Chem., Vol. 24, “Fluorine containing nitrogen compounds—I Trifluoroethylamines,” Bissel et al, pages 1256-1259 (1959)]. Even though the dimensions of bis-β,β,β-trifluoroethylspermine and diethylspermine are essentially the same, what was once a tetracationic spermine analog is now only a dication. […] The same phenomenon is observed when one acetylates a terminal nitrogen of spermine. The amide nitrogen is not protonated at physiological pH, and the compound has no anti-neoplastic properties and behaves very much like spermidine in displacing ethidium iodide from DNA.

calf thymus DNA = assay: Displacement of ethidium iodide from calf thymus DNA; type: binding; conditions: compared with natural polyamines
Source text: as §1

L1210 cells = assay: Growth inhibition of L1210 cells (IC50 at 48/96 h); type: cell-based; conditions: Mus musculus
[3] = Table 1, 48 h, read-out: IC50 (μM) of L1210 cells at 48 h
[4] = Table 1, 96 h, read-out: IC50 (μM) of L1210 cells at 96 h

| SMILES | SAT up-regulation (factor) [1] | anti-neoplastic activity [2] | ability to displace ethidium iodide from calf thymus DNA (calf thymus DNA) | IC50 (L1210 cells; [3]) [µM] | IC50 (L1210 cells; [4]) [µM] |
| --- | --- | --- | --- | --- | --- |
| CCNCCCCNCCCCNCCCCNCC [DEHSPM, diethyl-homospermine] | little impact on SAT levels |  |  |  |  |
| CCNCCCNCCCNCCCNCC [DENSPM, diethylnorspermine] | 1,200 fold |  |  |  |  |
| FC(F)(F)CNCCCNCCCCNCCCNCC(F)(F)F [BTFESPM, bis-β,β,β-trifluoroethylspermine] |  | essentially disappears | behave more like putrescine than spermine |  |  |
| CCNCCCNCCCCNCCCNCC [DESPM, N^1,N^12-diethylspermine] | 200 fold | quite active |  |  |  |
| c1cc(CNCCCCNCc2ccncc2)ccn1 |  |  |  | > 100 | 90 |
| C(CCNCC1CCNCC1)CNCC1CCNCC1 |  |  |  | 2 | 0.2 |
| c1cc(CCNCCNCCc2ccncc2)ccn1 |  |  |  | > 100 | > 100 |
| C(CCNCCC1CCNCC1)CNCCC1CCNCC1 |  |  |  | > 100 | 0.25 |
